Biological target: human LPAR1 (Homo sapiens (Human), UniProt Q92633)
Assay: LPAR1 intracellular calcium mobilization assay (antagonist mode, FLIPR)
Assay type: cell-based
Details: CHO-K1 EDG2 cells expressing human LPAR1, LPA 18:2 at EC80 (100 nM), test compound 0.5 nM to 10 μM

Chain of human LPAR1 (Q92633 whole entry): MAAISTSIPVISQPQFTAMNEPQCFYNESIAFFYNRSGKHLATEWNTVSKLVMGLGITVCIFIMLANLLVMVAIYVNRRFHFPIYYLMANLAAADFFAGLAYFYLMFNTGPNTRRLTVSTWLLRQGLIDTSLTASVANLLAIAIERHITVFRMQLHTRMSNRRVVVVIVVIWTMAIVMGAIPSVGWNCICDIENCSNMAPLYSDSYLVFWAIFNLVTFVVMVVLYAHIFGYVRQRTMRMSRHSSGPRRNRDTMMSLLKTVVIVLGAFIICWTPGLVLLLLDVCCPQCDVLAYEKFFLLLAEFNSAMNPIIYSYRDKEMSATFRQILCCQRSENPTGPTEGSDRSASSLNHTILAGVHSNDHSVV

SMILES | EC50 [nM]
C[C@@H](OC(=O)Nc1c(-c2ccc(NC(=O)C3(C#N)CC3)c(F)n2)nnn1C)c1cccnc1Cl [Compound 316, (R)-1-(2-chloropyridin-3-yl)ethyl (4-(5-(1-cyanocyclopropane-1-carboxamido)-6-fluoropyridin-2-yl)-1-methyl-1H-1,2,3-triazol-5-yl)carbamate] | 41.6
C[C@@H](OC(=O)Nc1c(-c2cc(F)c(NC(=O)c3ccc(C(F)(F)F)nc3)cn2)nnn1C)c1cccnc1Cl [Compound 317, (R)-1-(2-chloropyridin-3-yl)ethyl (4-(4-fluoro-5-(6-(trifluoromethyl)nicotinamido)pyridin-2-yl)-1-methyl-1H-1,2,3-triazol-5-yl)carbamate] | 90.5
C[C@@H](OC(=O)Nc1c(-c2ccc(NC(=O)c3cnc(C(F)(F)F)nc3)c(F)n2)nnn1C)c1cccnc1Cl [Compound 318, (R)-1-(2-chloropyridin-3-yl)ethyl (4-(6-fluoro-5-(2-(trifluoromethyl)pyrimidine-5-carboxamido)pyridin-2-yl)-1-methyl-1H-1,2,3-triazol-5-yl)carbamate] | 9.5
C[C@@H](OC(=O)Nc1c(-c2ncc(NC(=O)c3ccc(Cl)nc3)cn2)nnn1C)c1cc(F)cnc1F [Compound 319, (R)-1-(2,5-difluoropyridin-3-yl)ethyl (4-(5-(6-chloronicotinamido)pyrimidin-2-yl)-1-methyl-1H-1,2,3-triazol-5-yl)carbamate] | 1500
C[C@@H](OC(=O)Nc1c(-c2cnc(NC(=O)c3ccc(Cl)nc3)cn2)nnn1C)c1cc(F)cnc1F [Compound 320, (R)-1-(2,5-difluoropyridin-3-yl)ethyl (4-(5-(6-chloronicotinamido)pyrazin-2-yl)-1-methyl-1H-1,2,3-triazol-5-yl)carbamate] | 131
C[C@@H](OC(=O)Nc1c(-c2cnc(NC(=O)c3ccc(C(F)F)nc3)cn2)nnn1C)c1cc(F)cnc1F [Compound 321, (R)-1-(2,5-difluoropyridin-3-yl)ethyl (4-(5-(6-(difluoromethyl)nicotinamido)pyrazin-2-yl)-1-methyl-1H-1,2,3-triazol-5-yl)carbamate] | 309
C[C@@H](OC(=O)Nc1c(-c2cnc(NC(=O)c3ccc(C(F)(F)F)nc3)cn2)nnn1C)c1cc(F)cnc1F [Compound 322, (R)-1-(2,5-difluoropyridin-3-yl)ethyl (1-methyl-4-(5-(6-(trifluoromethyl)nicotinamido)pyrazin-2-yl)-1H-1,2,3-triazol-5-yl)carbamate] | 170
C[C@@H](OC(=O)Nc1c(-c2cnc(NC(=O)c3ccnc(F)c3F)cn2)nnn1C)c1cc(F)cnc1F [Compound 323, (R)-1-(2,5-difluoropyridin-3-yl)ethyl (4-(5-(2,3-difluoroisonicotinamido)pyrazin-2-yl)-1-methyl-1H-1,2,3-triazol-5-yl)carbamate] | 178
C[C@@H](OC(=O)Nc1c(-c2cnc(NC(=O)c3cnc(C(F)F)nc3)cn2)nnn1C)c1cccnc1Cl [Compound 324, (R)-1-(2-chloropyridin-3-yl)ethyl (4-(5-(2-(difluoromethyl)pyrimidine-5-carboxamido)pyrazin-2-yl)-1-methyl-1H-1,2,3-triazol-5-yl)carbamate] | 53.7
C[C@@H](OC(=O)Nc1c(-c2cnc(NC(=O)c3cnc(C(F)(F)F)nc3)cn2)nnn1C)c1cccnc1F [Compound 325, (R)-1-(2-fluoropyridin-3-yl)ethyl (1-methyl-4-(5-(2-(trifluoromethyl)pyrimidine-5-carboxamido)pyrazin-2-yl)-1H-1,2,3-triazol-5-yl)carbamate] | 185
C[C@@H](OC(=O)Nc1c(-c2cnc(NC(=O)c3ccc(C(F)(F)F)nc3)cn2)nnn1C)c1cccnc1F [Compound 326, (R)-1-(2-fluoropyridin-3-yl)ethyl (1-methyl-4-(5-(6-(trifluoromethyl)nicotinamido)pyrazin-2-yl)-1H-1,2,3-triazol-5-yl)carbamate] | 305
C[C@@H](OC(=O)Nc1c(-c2cnc(NC(=O)c3cnc(C(F)F)nc3)cn2)nnn1C)c1cccnc1F [Compound 327, (R)-1-(2-fluoropyridin-3-yl)ethyl (4-(5-(2-(difluoromethyl)pyrimidine-5-carboxamido)pyrazin-2-yl)-1-methyl-1H-1,2,3-triazol-5-yl)carbamate] | 255
C[C@@H](OC(=O)Nc1c(-c2cnc(NC(=O)C3(C#N)CC3)cn2)nnn1C)c1cc(F)cnc1F [Compound 328, (R)-1-(2,5-difluoropyridin-3-yl)ethyl (4-(5-(1-cyanocyclopropane-1-carboxamido)pyrazin-2-yl)-1-methyl-1H-1,2,3-triazol-5-yl)carbamate] | 1130
C[C@@H](OC(=O)Nc1c(-c2ncc(NC(=O)C3(C#N)CC3)cn2)nnn1C)c1cc(F)cnc1Cl [Compound 329, (R)-1-(2-chloro-5-fluoropyridin-3-yl)ethyl (4-(5-(1-cyanocyclopropane-1-carboxamido)pyrimidin-2-yl)-1-methyl-1H-1,2,3-triazol-5-yl)carbamate] | 749
C[C@@H](OC(=O)Nc1c(-c2ncc(NC(=O)C34CC(F)(C3)C4)cn2)nnn1C)c1cc(F)cnc1Cl [Compound 330, (R)-1-(2-chloro-5-fluoropyridin-3-yl)ethyl (4-(5-(3-fluorobicyclo[1.1.1]pentane-1-carboxamido)pyrimidin-2-yl)-1-methyl-1H-1,2,3-triazol-5-yl)carbamate] | 600
C[C@@H](OC(=O)Nc1c(-c2ncc(NC(=O)[C@@H]3C[C@H]3C(F)(F)F)cn2)nnn1C)c1cc(F)cnc1Cl [Compound 331, (R)-1-(2-chloro-5-fluoropyridin-3-yl)ethyl (1-methyl-4-(5-((1R,2R)-2-(trifluoromethyl)cyclopropane-1-carboxamido)pyrimidin-2-yl)-1H-1,2,3-triazol-5-yl)carbamate] | 22.8
C[C@@H](OC(=O)Nc1c(-c2ncc(NC(=O)c3ccc(C(F)(F)F)nc3)cn2)nnn1C)c1cc(F)cnc1Cl [Compound 332, (R)-1-(2-chloro-5-fluoropyridin-3-yl)ethyl (1-methyl-4-(5-(6-(trifluoromethyl)nicotinamido)pyrimidin-2-yl)-1H-1,2,3-triazol-5-yl)carbamate] | 354
C[C@@H](OC(=O)Nc1c(-c2cnc(NC(=O)C34CC(F)(C3)C4)cn2)nnn1C)c1cc(F)cnc1Cl [Compound 333, (R)-1-(2-chloro-5-fluoropyridin-3-yl)ethyl (4-(5-(3-fluorobicyclo[1.1.1]pentane-1-carboxamido)pyrazin-2-yl)-1-methyl-1H-1,2,3-triazol-5-yl)carbamate] | 219
CO[C@]1(C#N)C[C@@H](C(=O)Nc2cnc(-c3nnn(C)c3NC(=O)O[C@H](C)c3cc(F)cnc3F)nc2)C1 [Compound 334, (R)-1-(2,5-difluoropyridin-3-yl)ethyl (4-(5-((1r,3R)-3-cyano-3-methoxycyclobutane-1-carboxamido)pyrimidin-2-yl)-1-methyl-1H-1,2,3-triazol-5-yl)carbamate] | 3420
CO[C@]1(C#N)C[C@H](C(=O)Nc2cnc(-c3nnn(C)c3NC(=O)O[C@H](C)c3cc(F)cnc3F)nc2)C1 [Compound 335, (R)-1-(2,5-difluoropyridin-3-yl)ethyl (4-(5-((1s,3S)-3-cyano-3-methoxycyclobutane-1-carboxamido)pyrimidin-2-yl)-1-methyl-1H-1,2,3-triazol-5-yl)carbamate] | 778

— patent US11912686B2 (Gilead Sciences, Inc., priority 2020, dated 2024)
